# From patent US12606571B2, “Macrocyclic compounds and uses thereof” (TURNING POINT THERAPEUTICS, INC., priority 2017, dated 2026)
# Read-outs that look alike come from different tables or passages of the source.
# Tests used:
# SRC = target: T1, SRC (Homo sapiens, UniProt P12931); experiment: Biochemical kinase assay (Reaction Biology), SRC; conditions: 10 μM ATP; read-out: Enzymatic Kinase SRC IC50
# T1 construct: purchased Reaction Biology Corporation (assay service; enzyme from the CRO's panel)
# Experimental: (§1) The biochemical kinase assay was performed at Reaction Biology Corporation (www.reactionbiology.com, Malvern, PA) following the procedures described in the reference (Anastassiadis T, et al Nat Biotechnol. 2011, 29, 1039). Specific kinase/substrate pairs along with required cofactors were prepared in reaction buffer; 20 mM Hepes pH 7.5, 10 mM MgCl2,1 mM EGTA, 0.02% Brij35, 0.02 mg/ml BSA, 0.1 mM Na3VO4, 2 mM DTT, 1% DMSO (for specific details of individual kinase reaction components see Supplementary Table 2). Compounds were delivered into the reaction, followed ˜20 minutes later by addition of a mixture of ATP (Sigma, St. Louis MO) and ^33P ATP (Perkin Elmer, Waltham MA) to a final concentration of 10 μM. Reactions were carried out at room temperature for 120 min, followed by spotting of the reactions onto P81 ion exchange filter paper (Whatman Inc., Piscataway, NJ). Unbound phosphate was removed by extensive washing of filters in 0.75% phosphoric acid. […] IC50 values and curve fits were obtained using Prism (GraphPad Software).
# (§2) The enzymatic kinase inhibition activities at 10 μM ATP concentration were determined at Reaction Biology.
# MET = target: T2, MET (Homo sapiens, UniProt P08581); experiment: Biochemical kinase assay (Reaction Biology), MET; conditions: 10 μM ATP; read-out: Enzymatic Kinase MET IC50
# T2 construct: purchased Reaction Biology Corporation (assay service; enzyme from the CRO's panel)
# Experimental: as §1, with “Specific” for “The biochemical kinase assay was performed at Reaction Biology Corporation (www.reactionbiology.com, Malvern, PA) following the procedures described in the reference (Anastassiadis T, et al Nat Biotechnol. 2011, 29, 1039). Specific”, “NJ).” for “NJ). Unbound phosphate was removed by extensive washing of filters in 0.75% phosphoric acid.”
# as §2
# c-FMS (CSF1R) = target: T3, c-FMS (CSF1R) (Homo sapiens, UniProt P07333); experiment: Biochemical kinase assay (Reaction Biology), c-FMS (CSF1R); conditions: 10 μM ATP; read-out: Enzymatic Kinase c-FMS (CSF1R) IC50
# T3 construct: purchased Reaction Biology Corporation (assay service; enzyme from the CRO's panel)
# Experimental: as §1, with “Specific” for “The biochemical kinase assay was performed at Reaction Biology Corporation (www.reactionbiology.com, Malvern, PA) following the procedures described in the reference (Anastassiadis T, et al Nat Biotechnol. 2011, 29, 1039). Specific”, “NJ).” for “NJ). Unbound phosphate was removed by extensive washing of filters in 0.75% phosphoric acid.”
# as §2
# MKN-45 cells [1] = experiment: MET cell proliferation assay, MKN-45 (CellTiter-Glo); assay type: cell-based; conditions: Homo sapiens, 72 hours treatment
# Experimental: (§3) Two thousand cells per well were seeded in 384 well white plate for 24 hrs, and then treated with compounds for 72 hours (37° C., 5% CO2). Cell proliferation was measured using CellTiter-Glo luciferase-based ATP detection assay (Promega) following the manufacturer's protocol. IC50 determinations were performed using GraphPad Prism software (GraphPad, Inc., San Diego, CA).
# (§4) The anti-cell proliferation activities against MET and CSF1R driven cell lines were conducted with MKN-45, SNU-5, Ba/F3 TEL-CSF1R cells, and M-NFS-60 respectively.
# SNU-5 cells = experiment: MET cell proliferation assay, SNU-5 (CellTiter-Glo); assay type: cell-based; conditions: Homo sapiens, 72 hours treatment
# Experimental: as §3, §4
# HCC827 cells [2] = experiment: HCC827 cell proliferation assay, single agents and combinations; assay type: cell-based, human
# MKN-45 cells [3] = experiment: Scratch wound healing assay, MKN-45; assay type: cell-based; conditions: 36-48 hours treatment
# Experimental: (§5) MKN-45 or HCC827 cells were seeded in 24-well plate. After 12-24 hours, confluent cell monolayers were gently scraped with a sterile pipette tip to form a scratch. The plates were washed with fresh medium, and the cells were incubated with medium alone or medium containing various concentration of compounds. After 36-48 hours, the plates were examined and recorded by an EVOS FL microscopy (Life Technology) to monitor rescaling of the cell monolayer.
# HCC827 cells [4] = experiment: Scratch wound healing assay, HCC827; assay type: cell-based, human; conditions: 36-48 hours treatment
# Experimental: as §5
# M-NFS-60 cells = experiment: M-NFS-60 cell proliferation at varied CSF-1; assay type: cell-based; conditions: Mus musculus, read-out: M-NFS-60 IC50
# Experimental: as §3, §4
# T2 sequence (P08581 25-1390): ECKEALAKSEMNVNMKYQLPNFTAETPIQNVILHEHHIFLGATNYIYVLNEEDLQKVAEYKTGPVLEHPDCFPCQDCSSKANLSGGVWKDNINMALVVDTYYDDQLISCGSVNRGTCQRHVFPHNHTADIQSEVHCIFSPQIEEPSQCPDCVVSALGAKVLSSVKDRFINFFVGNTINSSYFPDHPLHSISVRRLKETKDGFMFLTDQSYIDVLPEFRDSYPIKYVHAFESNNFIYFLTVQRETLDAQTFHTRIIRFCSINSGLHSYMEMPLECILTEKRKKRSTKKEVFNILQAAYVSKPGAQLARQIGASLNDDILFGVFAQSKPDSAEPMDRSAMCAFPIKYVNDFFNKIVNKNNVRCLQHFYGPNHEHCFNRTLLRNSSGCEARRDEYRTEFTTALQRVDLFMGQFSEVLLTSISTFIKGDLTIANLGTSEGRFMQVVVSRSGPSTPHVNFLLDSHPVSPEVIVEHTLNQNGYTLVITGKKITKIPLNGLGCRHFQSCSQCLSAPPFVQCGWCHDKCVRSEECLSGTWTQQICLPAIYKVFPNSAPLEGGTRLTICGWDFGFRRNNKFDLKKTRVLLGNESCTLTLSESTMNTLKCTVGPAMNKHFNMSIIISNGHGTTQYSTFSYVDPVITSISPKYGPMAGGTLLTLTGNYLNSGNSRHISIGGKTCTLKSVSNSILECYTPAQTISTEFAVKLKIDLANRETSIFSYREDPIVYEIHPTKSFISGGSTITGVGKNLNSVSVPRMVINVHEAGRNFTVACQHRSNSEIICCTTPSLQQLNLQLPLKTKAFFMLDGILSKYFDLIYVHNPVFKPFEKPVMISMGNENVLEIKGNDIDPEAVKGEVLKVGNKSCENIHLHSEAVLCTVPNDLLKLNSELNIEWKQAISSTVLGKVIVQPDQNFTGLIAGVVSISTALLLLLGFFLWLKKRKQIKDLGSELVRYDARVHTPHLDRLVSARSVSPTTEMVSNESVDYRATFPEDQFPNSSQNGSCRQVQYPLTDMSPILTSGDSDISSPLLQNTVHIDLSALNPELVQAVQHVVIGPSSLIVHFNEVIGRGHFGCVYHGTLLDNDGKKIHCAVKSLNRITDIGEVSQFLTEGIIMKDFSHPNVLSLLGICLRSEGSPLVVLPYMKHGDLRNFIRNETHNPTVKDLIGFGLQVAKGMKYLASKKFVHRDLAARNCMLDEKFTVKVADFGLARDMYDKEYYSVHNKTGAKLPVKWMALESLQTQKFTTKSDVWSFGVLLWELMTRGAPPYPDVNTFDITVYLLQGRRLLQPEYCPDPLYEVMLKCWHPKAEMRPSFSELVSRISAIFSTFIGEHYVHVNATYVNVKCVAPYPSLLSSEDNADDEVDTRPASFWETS
# T1 sequence (P12931 whole entry): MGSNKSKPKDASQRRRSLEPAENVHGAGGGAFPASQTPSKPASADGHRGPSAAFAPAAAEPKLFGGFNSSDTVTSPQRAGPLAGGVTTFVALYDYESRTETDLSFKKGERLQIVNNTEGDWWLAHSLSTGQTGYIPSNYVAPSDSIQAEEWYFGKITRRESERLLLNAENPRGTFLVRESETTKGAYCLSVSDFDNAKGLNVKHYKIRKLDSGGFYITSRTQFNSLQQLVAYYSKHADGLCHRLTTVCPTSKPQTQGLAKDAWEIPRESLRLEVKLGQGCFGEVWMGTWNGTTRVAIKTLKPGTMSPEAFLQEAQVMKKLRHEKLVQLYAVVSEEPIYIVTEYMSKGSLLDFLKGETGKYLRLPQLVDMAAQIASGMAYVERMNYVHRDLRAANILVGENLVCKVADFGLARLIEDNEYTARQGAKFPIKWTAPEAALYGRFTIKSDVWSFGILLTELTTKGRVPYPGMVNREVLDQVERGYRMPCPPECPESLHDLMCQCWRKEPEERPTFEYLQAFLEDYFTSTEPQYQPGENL
# T3 sequence (P07333 20-972): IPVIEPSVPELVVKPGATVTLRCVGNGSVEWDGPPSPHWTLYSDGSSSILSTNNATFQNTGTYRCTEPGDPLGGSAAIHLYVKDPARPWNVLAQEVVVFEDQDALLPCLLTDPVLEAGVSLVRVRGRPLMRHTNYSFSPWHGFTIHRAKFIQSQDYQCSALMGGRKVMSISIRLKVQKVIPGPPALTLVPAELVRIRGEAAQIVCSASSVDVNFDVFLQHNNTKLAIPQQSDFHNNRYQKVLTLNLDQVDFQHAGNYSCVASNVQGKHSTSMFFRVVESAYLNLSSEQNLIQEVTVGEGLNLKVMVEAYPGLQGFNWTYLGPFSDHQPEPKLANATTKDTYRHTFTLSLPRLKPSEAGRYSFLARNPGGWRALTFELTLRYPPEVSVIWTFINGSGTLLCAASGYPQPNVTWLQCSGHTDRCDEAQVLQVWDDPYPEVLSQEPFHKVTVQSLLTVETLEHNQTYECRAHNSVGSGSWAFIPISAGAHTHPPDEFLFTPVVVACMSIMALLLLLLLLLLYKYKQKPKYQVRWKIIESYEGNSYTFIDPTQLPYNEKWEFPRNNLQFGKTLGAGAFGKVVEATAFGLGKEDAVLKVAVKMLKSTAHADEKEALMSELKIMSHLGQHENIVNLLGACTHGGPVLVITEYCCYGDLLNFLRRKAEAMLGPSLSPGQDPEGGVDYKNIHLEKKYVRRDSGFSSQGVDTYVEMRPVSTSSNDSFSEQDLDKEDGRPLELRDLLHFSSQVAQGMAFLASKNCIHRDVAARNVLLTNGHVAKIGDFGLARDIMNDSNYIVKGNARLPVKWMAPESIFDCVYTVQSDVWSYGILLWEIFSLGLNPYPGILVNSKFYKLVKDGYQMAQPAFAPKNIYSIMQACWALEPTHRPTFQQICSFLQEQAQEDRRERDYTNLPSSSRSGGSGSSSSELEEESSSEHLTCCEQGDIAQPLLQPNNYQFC
SMILES,IC50 (SRC) [µM],IC50 (MET) [µM],IC50 (MKN-45 cells [1]) [µM],IC50 (SNU-5 cells) [µM],further results
C=CC(=O)Nc1cc(Nc2nccc(-c3cn(C)c4ccccc34)n2)c(OC)cc1N(C)CCN(C)C [AZD9291],,,,,"Emax (HCC827 cells [2]; Homo sapiens, HCC827, read-out: HCC827 cell proliferation Emax (maximum inhibition)): 47%; IC50 (HCC827 cells [2]; Homo sapiens, HCC827, read-out: HCC827 cell proliferation IC50): 0.005 µM"
CNC(=O)c1ccc(-c2cnc3ncc(Cc4ccc5ncccc5c4)n3n2)cc1F [capmatinib],,,,,"IC50 (HCC827 cells [2]; Homo sapiens, HCC827, combination partner at 1 μM where combined, AZD9291 curves partial, read-out: HCC827 cell proliferation IC50): > 10 µM; HCC827 cell proliferation IC50 (HCC827 cells [2]; combination partner at 1 μM where combined, AZD9291 curves partial): not active; cell migration of MKN-45 cells, wound healing (MKN-45 cells [3]): inhibited; cell migration of HCC827 cells, wound healing (HCC827 cells [4]): minimum effect; cell migration of HCC827 cells, wound healing (HCC827 cells [4]; listed as campmatinib): minimal effect"
"FC(F)(F)c1ccc(CNc2ccc(Cc3c[nH]c4ncc(Cl)cc34)cn2)cn1 [Pexidartinib, reference compound]",,,,,IC50 (M-NFS-60 cells; CSF-1 0 ng/mL): < 0.0001 µM; IC50 (M-NFS-60 cells; CSF-1 0.3 ng/mL): 0.002 µM; IC50 (M-NFS-60 cells; CSF-1 1 ng/mL): 0.146 µM; IC50 (M-NFS-60 cells; CSF-1 3 ng/mL): 0.212 µM; IC50 (M-NFS-60 cells; CSF-1 10 ng/mL): 0.38 µM; IC50 (M-NFS-60 cells; CSF-1 30 ng/mL): 0.595 µM; IC50 (M-NFS-60 cells; CSF-1 100 ng/mL): 0.702 µM
"CCN1Cc2c(C#N)cccc2OCCNC(=O)c2cnn3ccc1nc23 [Compound 3, 14-ethyl-4-oxo-4,5,6,7,13,14-hexahydro-1,15-ethenopyrazolo[4,3-f][1,4,8,10]benzoxatriazacyclotridecine-12-carbonitrile]",0.0971,0.11,0.471,0.674,
"C[C@H]1CNC(=O)c2c(N)nn3ccc(nc23)NCc2c(ccc(F)c2C#N)O1 [Compound 9, (7S)-3-amino-11-fluoro-7-methyl-4-oxo-4,5,6,7,13,14-hexahydro-1,15-ethenopyrazolo[4,3-f][1,4,8,10]benzoxatriazacyclotridecine-12-carbonitrile]",,,0.297,,

# More lines, main results first:
IC50 (SRC) [µM],IC50 (MET) [µM],IC50 (MKN-45 cells [1]) [µM],IC50 (SNU-5 cells) [µM],SMILES,further results
0.00049,0.00185,0.012,0.0058,"CCN1Cc2c(ccc(F)c2C#N)O[C@@H](C)CNC(=O)c2cnn3ccc1nc23 [Compound 4, (7S)-14-ethyl-11-fluoro-7-methyl-4-oxo-4,5,6,7,13,14-hexahydro-1,15-ethenopyrazolo[4,3-f][1,4,8,10]benzoxatriazacyclotridecine-12-carbonitrile]",IC50 (c-FMS (CSF1R)): 0.00042 µM
0.00083,0.0038,0.001,0.001,"CC(C)N1Cc2c(ccc(F)c2C#N)O[C@@H](C)CNC(=O)c2c(N)nn3ccc1nc23 [Compound 8, (7S)-3-amino-11-fluoro-7-methyl-4-oxo-14-(propan-2-yl)-4,5,6,7,13,14-hexahydro-1,15-ethenopyrazolo[4,3-f][1,4,8,10]benzoxatriazacyclotridecine-12-carbonitrile]",
0.003,0.0365,0.129,0.136,"CCN1Cc2c(C#N)cccc2O[C@@H](C)CNC(=O)c2cnn3ccc1nc23 [Compound 2, (7S)-14-ethyl-7-methyl-4-oxo-4,5,6.7,13,14-hexahydro-1,15-ethenopyrazolo[4,3-f][1,4,8,10]benzoxatriazacyclotridecine-12-carbonitrile]",
0.0007,0.0022,0.0177,0.001,"C[C@H]1CNC(=O)c2c(N)nn3ccc(nc23)N(CC2CC2)Cc2c(ccc(F)c2C#N)O1 [Compound 7, (7S)-3-amino-14-(cyclopropylmethyl)-11-fluoro-7-methyl-4-oxo-4,5,6,7,13,14-hexahydro-1,15-ethenopyrazolo[4,3-f][1,4,8,10]benzoxatriazacyclotridecine-12-carbonitrile]",
0.0136,0.0097,0.0583,0.0368,"CCN1Cc2c(C#N)cccc2O[C@@H](C)CNC(=O)c2c(N)nn3ccc1nc23 [Compound 6, (7S)-3-amino-14-ethyl-7-methyl-4-oxo-4,5,6,7,13,14-hexahydro-1,15-ethenopyrazolo[4,3-f][1,4,8,10]benzoxatriazacyclotridecine-12-carbonitrile]",
,0.0204,0.193,0.174,"CCN1Cc2c(ccc(F)c2Cl)O[C@@H](C)CNC(=O)c2c(N)nn3ccc1nc23 [Compound 1, (7S)-3-amino-12-chloro-14-ethyl-11-fluoro-7-methyl-6,7,13,14-tetrahydro-1,15-ethenopyrazolo[4,3-f][1,4,8,10]benzoxatriazacyclotridecin-4(5H)-one]",
